Values joined by “and” are separate entries in the source; they are usually repeats but may differ in a detail not shown here. Identical values can stand only once. Like-named read-outs stand apart in the source and are kept apart here.
Test system: NAD(P)H quinone oxidoreductase 1 (Nqo1)
Assay: RT-qPCR of Nqo1 mRNA in MDCK cells with or without A/PR/8/34 virus
Type: cell-based, canine
Details: for NQO1 Canis lupus mRNA, ave / NQO1 Canis lupus mRNA, individual replicates: 12.5uM, MDCK, relative to virus - DMSO; for NQO1 Canis lupus mRNA, ave: ave of #1-3 exp; for NQO1 Canis lupus mRNA, individual replicates: replicates 1-3 of #1, #2, #3 exp

For `C=C[C@@](C)(/C=C/c1ccc(O)cc1)CCC=C(C)C` [(+)-(S)-bakuchiol, reference compound], the “relative mRNA level of Nqo1 compared with DMSO” value was “significantly upregulated”, the “NQO1 Canis lupus mRNA, ave” value (virus + (PR8)) was 2.213 and the “NQO1 Canis lupus mRNA, individual replicates” value (virus + (PR8)) was 2.486 and 2.782 and 2.118 and 2.457 and 1.645 and 1.778 and 1.772 and 2.442 and 2.434. For the same molecule, the “NQO1 Canis lupus mRNA, ave” value (virus -) was 1.91, the “NQO1 Canis lupus mRNA, individual replicates” value (virus -) was 1.8342 and 2.199 and 2.0999 and 1.939 and 1.851 and 1.6659 and 2.003 and 1.832 and 1.767 and the “relative mRNA level of Nqo1 compared with DMSO” value (without A/PR/8/34 virus, 12.5 μM, 24 h) was “significantly upregulated”.

— article PMC7997032, “Organic synthesis and anti-influenza A virus activity of cyclobakuchiols A, B, C, and D” (PLoS ONE, 2021)
